Where “and” joins values, the source holds several entries; their conditions need not be identical. Equal entries are not always repeated.
How the values were obtained:
CB1 (rCB1) [1] = target: T1, CB1 (rCB1) (Rattus norvegicus, UniProt P20272); test: Single-point radioligand displacement screen; assay type: binding; conditions: 10 µM, 1 µM or 300 nM by cell colour (not visible)
hCB1 [2] = target: T2, hCB1 (Homo sapiens, UniProt P21554); test: bioSensAll ebBRET signaling profiling, hCB1; assay type: cell-based; set-up: host or cells: HEK293SL cells, transient PEI transfection; conditions: for Gi1 hCB1 response: Gi1 biosensor; for Gi1 hCB1 / GoB hCB1: single replicate values, FigS6a; for EC50: read-out: EC50 [95% CI]; for Emax: normalized to CP-55,940
T2 sequence (P21554 whole entry): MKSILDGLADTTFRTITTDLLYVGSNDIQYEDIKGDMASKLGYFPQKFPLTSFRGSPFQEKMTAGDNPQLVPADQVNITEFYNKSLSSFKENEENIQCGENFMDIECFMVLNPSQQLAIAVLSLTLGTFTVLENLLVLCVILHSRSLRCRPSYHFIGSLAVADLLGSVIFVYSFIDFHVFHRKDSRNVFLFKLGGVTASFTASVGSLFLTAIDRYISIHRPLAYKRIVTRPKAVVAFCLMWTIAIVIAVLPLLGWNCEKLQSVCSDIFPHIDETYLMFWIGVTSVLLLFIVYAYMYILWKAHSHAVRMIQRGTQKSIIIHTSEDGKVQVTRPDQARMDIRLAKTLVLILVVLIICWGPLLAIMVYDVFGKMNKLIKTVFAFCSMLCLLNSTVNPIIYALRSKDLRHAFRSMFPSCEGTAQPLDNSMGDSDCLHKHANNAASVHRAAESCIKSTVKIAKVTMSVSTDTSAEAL

CB1 (rCB1) [3] = target: T1, CB1 (rCB1); test: Radioligand competition binding, [3H]-CP-55,940, rat brain membranes
hCB1 [4] = target: T2, hCB1; test: Lance Ultra cAMP accumulation assay, CHO cells; assay type: cell-based; set-up: expressed in transfected cells; conditions: for normalised cAMP response, concentration-response (Figure2f), replicate values: log[Compound;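 for all read-outs here: human CB1R stably expressed in CHO cells, ligands co-incubated with forskolin at room temperature, read-out is lowering of forskolin-stimulated cAMP accumulation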

T1 sequence (P20272 whole entry): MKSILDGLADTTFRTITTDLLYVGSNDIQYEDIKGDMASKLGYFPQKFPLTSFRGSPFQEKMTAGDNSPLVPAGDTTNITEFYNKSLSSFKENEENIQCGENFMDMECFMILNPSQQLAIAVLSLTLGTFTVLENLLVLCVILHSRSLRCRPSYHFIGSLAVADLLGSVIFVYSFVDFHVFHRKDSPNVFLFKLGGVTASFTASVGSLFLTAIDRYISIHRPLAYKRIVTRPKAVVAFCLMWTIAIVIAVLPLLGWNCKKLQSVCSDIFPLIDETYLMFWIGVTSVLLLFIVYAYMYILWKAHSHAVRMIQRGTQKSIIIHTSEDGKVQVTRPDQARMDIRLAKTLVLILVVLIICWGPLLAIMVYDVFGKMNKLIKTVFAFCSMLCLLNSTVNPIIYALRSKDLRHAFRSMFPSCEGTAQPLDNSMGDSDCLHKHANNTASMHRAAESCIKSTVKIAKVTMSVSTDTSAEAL

COC(=O)C(NC(=O)c1cc(C)n(-c2cccc(C(F)(F)F)c2)n1)c1cccs1 (stereo not shown) [‘60154]
% 1H-CP-55,940 displacement (mean) from single point screen (CB1 (rCB1) [1]): 97.23%
Gi1 hCB1 response (hCB1 [2]; Log [Compound] (M) -4.22186): 135.687
Gi1 hCB1 response (hCB1 [2]; Log [Compound] (M) -4.63927): 128.615
Gi1 hCB1 response (hCB1 [2]; Log [Compound] (M) -5.05788): 93.8563
Gi1 hCB1 response (hCB1 [2]; Log [Compound] (M) -5.47381): 94.0353
Gi1 hCB1 response (hCB1 [2]; Log [Compound] (M) -5.89285): 102.272
Gi1 hCB1 response (hCB1 [2]; Log [Compound] (M) -6.31878): 90.7452
Gi1 hCB1 response (hCB1 [2]; Log [Compound] (M) -6.72585): 85.0156
Gi1 hCB1 response (hCB1 [2]; Log [Compound] (M) -7.14267): 90.8795
Gi1 hCB1 response (hCB1 [2]; Log [Compound] (M) -7.55284): 57.4417
Gi1 hCB1 response (hCB1 [2]; Log [Compound] (M) -8): 57.3074
Gi1 hCB1 response (hCB1 [2]; Log [Compound] (M) -8.22186): 41.0808
Gi1 hCB1 response (hCB1 [2]; Log [Compound] (M) -8.39794): 29.6663
Gi1 hCB1 response (hCB1 [2]; Log [Compound] (M) -8.68787): 9.254
Gi1 hCB1 response (hCB1 [2]; Log [Compound] (M) -9.15521): -1.31
Gi1 hCB1 response (hCB1 [2]; Log [Compound] (M) -9.61989): -12.1646
Gi1 hCB1 response (hCB1 [2]; Log [Compound] (M) -10.0969): 3.838
Gi1 hCB1 response (hCB1 [2]; Log [Compound] (M) -10.5529): 8.852
Gi1 hCB1 response (hCB1 [2]; Log [Compound] (M) -11.0177): -14.1566
Gi1 hCB1 response (hCB1 [2]; Log [Compound] (M) -11.4949): -8.897
Gi1 hCB1 response (hCB1 [2]; Log [Compound] (M) -11.9208): 6.613
Gi1 hCB1 response (hCB1 [2]; Log [Compound] (M) -12.3979): -8.651
Gi1 hCB1 response (hCB1 [2]; Log [Compound] (M) -12.8861): -7.89
Gi1 hCB1 response (hCB1 [2]; Log [Compound] (M) -13, individual replicate values): -1.847 and -6.9945
Gi1 hCB1 (hCB1 [2]; Log [Compound] (M) -4.22186): 97.0901
GoB hCB1 (hCB1 [2]; Log [Compound] (M) -4.22186): 92.7297
Gi1 hCB1 (hCB1 [2]; Log [Compound] (M) -4.63927): 95.1785
GoB hCB1 (hCB1 [2]; Log [Compound] (M) -4.63927): 96.2724
Gi1 hCB1 (hCB1 [2]; Log [Compound] (M) -5.05788): 93.4672
GoB hCB1 (hCB1 [2]; Log [Compound] (M) -5.05788): 98.1786
Gi1 hCB1 (hCB1 [2]; Log [Compound] (M) -5.47381): 90.2143
GoB hCB1 (hCB1 [2]; Log [Compound] (M) -5.47381): 107.08
Gi1 hCB1 (hCB1 [2]; Log [Compound] (M) -5.89285): 87.9019
GoB hCB1 (hCB1 [2]; Log [Compound] (M) -5.89285): 95.1574
Gi1 hCB1 (hCB1 [2]; Log [Compound] (M) -6.31878): 75.1986
GoB hCB1 (hCB1 [2]; Log [Compound] (M) -6.31878): 99.5993
Gi1 hCB1 (hCB1 [2]; Log [Compound] (M) -6.72585): 72.9632
GoB hCB1 (hCB1 [2]; Log [Compound] (M) -6.72585): 94.8877
Gi1 hCB1 (hCB1 [2]; Log [Compound] (M) -7.14267): 69.0474
GoB hCB1 (hCB1 [2]; Log [Compound] (M) -7.14267): 78.6487
Gi1 hCB1 (hCB1 [2]; Log [Compound] (M) -7.55284): 54.4325
GoB hCB1 (hCB1 [2]; Log [Compound] (M) -7.55284): 63.3449
Gi1 hCB1 (hCB1 [2]; Log [Compound] (M) -8): 27.0835
GoB hCB1 (hCB1 [2]; Log [Compound] (M) -8): 30.6512
Gi1 hCB1 (hCB1 [2]; Log [Compound] (M) -8.22186): 23.9076
GoB hCB1 (hCB1 [2]; Log [Compound] (M) -8.22186): 16.822
Gi1 hCB1 (hCB1 [2]; Log [Compound] (M) -8.39794): 14.1027
GoB hCB1 (hCB1 [2]; Log [Compound] (M) -8.39794): 15.743
Gi1 hCB1 (hCB1 [2]; Log [Compound] (M) -8.68787): 6.5794
GoB hCB1 (hCB1 [2]; Log [Compound] (M) -8.68787): 4.5753
Gi1 hCB1 (hCB1 [2]; Log [Compound] (M) -9.15521): 2.17
GoB hCB1 (hCB1 [2]; Log [Compound] (M) -9.15521): -0.7658
Gi1 hCB1 (hCB1 [2]; Log [Compound] (M) -9.61989): 0.08902
GoB hCB1 (hCB1 [2]; Log [Compound] (M) -9.61989): 0.7808
Gi1 hCB1 (hCB1 [2]; Log [Compound] (M) -10.0969): -0.8206
GoB hCB1 (hCB1 [2]; Log [Compound] (M) -10.0969): -0.1723
Gi1 hCB1 (hCB1 [2]; Log [Compound] (M) -10.5529): 0.8599
GoB hCB1 (hCB1 [2]; Log [Compound] (M) -10.5529): -2.762
Gi1 hCB1 (hCB1 [2]; Log [Compound] (M) -11.0177): 1.677
GoB hCB1 (hCB1 [2]; Log [Compound] (M) -11.0177): -1.018
Gi1 hCB1 (hCB1 [2]; Log [Compound] (M) -11.4949): 1.6461
GoB hCB1 (hCB1 [2]; Log [Compound] (M) -11.4949): -1.935
Gi1 hCB1 (hCB1 [2]; Log [Compound] (M) -11.9208): -0.003475
GoB hCB1 (hCB1 [2]; Log [Compound] (M) -11.9208): -0.2982
Gi1 hCB1 (hCB1 [2]; Log [Compound] (M) -12.3979): 0.3049
GoB hCB1 (hCB1 [2]; Log [Compound] (M) -12.3979): 0.619
Gi1 hCB1 (hCB1 [2]; Log [Compound] (M) -12.8861): 1.261
GoB hCB1 (hCB1 [2]; Log [Compound] (M) -12.8861): -2.69
Gi1 hCB1 (hCB1 [2]; Log [Compound] (M) -13): 0.459 and 0.9986
GoB hCB1 (hCB1 [2]; Log [Compound] (M) -13): -0.2622 and -1.953
pEC50 [95% CI] (hCB1 [2]; hCB1 Gi1): 7.6 [7.5 – 7.7]
pEC50 [95% CI] (hCB1 [2]; hCB1 GoB): 7.7 [7.7 – 7.8]
pEC50 [95% CI] (hCB1 [2]; hCB1 Gz): 7.8 [7.4 – 8.1]
EC50 (hCB1 [2]; hCB1 Gi1): 2.5 nM
EC50 (hCB1 [2]; hCB1 GoB): 18.4 nM
EC50 (hCB1 [2]; hCB1 Gz): 17.5 nM
Emax (hCB1 [2]; read-out: Emax [95% CI], hCB1 Gi1): 92%
Emax (hCB1 [2]; read-out: Emax [95% CI], hCB1 GoB): 100%
Emax (hCB1 [2]; read-out: Emax [95% CI], hCB1 Gz): 121%
improvement in affinity (free energy) (CB1 (rCB1) [3]; CF3 replacing F, ‘51486 vs ‘60154): -1.7 kcal/mol
LLE (lipophilic ligand efficiency) (CB1 (rCB1) [3]; LLE = pIC50 − clogP): 3.5
binding free energy ΔG (CB1 (rCB1) [3]; from measured Ki): 10.0 kcal/mol
LE (ligand efficiency) (CB1 (rCB1) [3]; from rCB1 affinity): 0.36
pKi [95% CI] (CB1 (rCB1) [3]; rCB1): 7.4 [7.2 – 7.5]
Ki (CB1 (rCB1) [3]; read-out: Ki [95% CI], rCB1, [3H]-CP-55,940): 44 nM and 44.3 nM
fold improvement in CB1R affinity (CB1 (rCB1) [3]; vs parent hit or analog without the change): 17 fold
EC50 (hCB1 [4]): 351 nM
Lance Ultra cAMP pEC50 (hCB1 [4]): 6.5 [7.0]
Emax (hCB1 [4]; CHO): 67%
normalised cAMP response, concentration-response (Figure2f), replicate values (hCB1 [4]; M] -5): 47.6767 and 42.0056 and 42.3397
normalised cAMP response, concentration-response (Figure2f), replicate values (hCB1 [4]; M] -6): 18.5649 and 64.1261 and 62.9313 and 54.4312
normalised cAMP response, concentration-response (Figure2f), replicate values (hCB1 [4]; M] -7): 60.7575 and 85.7016 and 74.1727 and 91.7418
normalised cAMP response, concentration-response (Figure2f), replicate values (hCB1 [4]; M] -8): 71.1204 and 91.8821 and 99.3075 and 104.869
normalised cAMP response, concentration-response (Figure2f), replicate values (hCB1 [4]; M] -9): 80.377 and 105.423 and 95.8256 and 102.017
normalised cAMP response, concentration-response (Figure2f), replicate values (hCB1 [4]; M] -10): 87.3077 and 96.5214 and 96.3615 and 92.9435
normalised cAMP response, concentration-response (Figure2f), replicate values (hCB1 [4]; M] -11): 91.1852 and 100.567 and 97.003 and 102.336
normalised cAMP response, concentration-response (Figure2f), replicate values (hCB1 [4]; M] -12): 91.9633 and 106.344 and 93.1819 and 97.7717

From article PMC11882969 (Nature Communications, 2025)
